# Test results: PMC7211198, “Phase 1b study of a small molecule antagonist of human chemokine (C-C motif) receptor 2 (PF-04136309) in combination with nab-paclitaxel/gemcitabine in first-line treatment of metastatic pancreatic ductal adenocarcinoma” (Investigational New Drugs, 2019)
# Marks after values point to notes of the source that are not given here.
# Test: Safety and tolerability (TEAEs, SAEs, DLTs, RP2D) in phase Ib study
# Type: in vivo, human
# Text: Safety assessments included collection of adverse events (AEs), serious AEs (SAEs), vital signs and physical examination, electrocardiogram (12-lead), laboratory assessments, including pregnancy test, and verification of concomitant treatments. A patient was considered as DLT-evaluable if the patient experienced a DLT or if otherwise, in the absence of a DLT, the patient received at least 85% of the planned doses of each study drug in the first 28-day cycle. DLTs were defined as any of the following events occurring in the first cycle of treatment (days 1 through 28) and attributed (i.e., judged to be at least possibly related) to the combination of PF-04136309 plus nab-paclitaxel/gemcitabine, where relationship with the combination could not be ruled out. DLTs were hematologic events of grade 4 neutropenia lasting >5 days; febrile neutropenia; grade ≥ 3 neutropenic infection; grade ≥ 3 thrombocytopenia with grade ≥ 2 bleeding; grade 4 thrombocytopenia; and nonhematologic events of grade 3 toxicities. Exceptions included nausea and vomiting responding to prophylaxis and/or treatment and lasting <7 days from each chemotherapy infusion period; diarrhea responding to treatment and lasting <7 days; grade 3 fatigue lasting <7 days; grade 3 QT interval corrected for heart rate prolongation (>500 msec) persisting after correction of any reversible causes; and/or grade 3 aspartate aminotransferase (AST) and/or alanine aminotransferase (ALT) increase lasting ≤7 days. All grade 4 toxicities and a delay of >2 weeks in receiving the next scheduled cycle due to persistent treatment-related toxicities were considered DLTs. AEs meeting DLT criteria in the dose-expansion phase included grade 3 events of diarrhea, hypokalemia, and dysesthesia and grade 4 hypoxia. […] AEs were graded according to the National Cancer Institute Common Terminology Criteria for Adverse Events, version 4.03.
# [1] = 750 mg BID + nab-P/Gem, all-causality TEAE
# [2] = 750 mg BID + nab-P/Gem, treatment-related SAE
# [3] = 500-mg BID group (n = 17), n = 1, considered unrelated to study treatment
# [4] = Total N = 21, treatment-related TEAE
smiles,measurement,setting,value
O=C(NCC(=O)N1CC[C@H](N[C@H]2CC[C@@](O)(c3ccc(-c4ncccn4)cn3)CC2)C1)c1cccc(C(F)(F)F)c1 [PF-04136309],"Chills, Grade 5",[1],0 n (%)
same,"Chills, Total",[1],2 (50.0) n (%)
same,"Constipation, Grade 1",[1],2 (50.0) n (%)
same,"Constipation, Grade 2",[1],1 (25.0) n (%)
same,"Constipation, Grade 3",[1],0 n (%)
same,"Constipation, Grade 4",[1],0 n (%)
same,"Constipation, Grade 5",[1],0 n (%)
same,"Constipation, Total",[1],3 (75.0) n (%)
same,"Fatigue, Grade 1",[1],3 (75.0) n (%)
same,"Fatigue, Grade 2",[1],1 (25.0) n (%)
same,"Fatigue, Grade 3",[1],0 n (%)
same,"Fatigue, Grade 4",[1],0 n (%)
same,"Fatigue, Grade 5",[1],0 n (%)
same,"Fatigue, Total",[1],4 (100.0) n (%)
same,"Insomnia, Grade 1",[1],1 (25.0) n (%)
same,"Insomnia, Grade 2",[1],1 (25.0) n (%)
same,"Insomnia, Grade 3",[1],0 n (%)
same,"Insomnia, Grade 4",[1],0 n (%)
same,"Insomnia, Grade 5",[1],0 n (%)
same,"Insomnia, Total",[1],2 (50.0) n (%)
same,"Leukopenia, Grade 1",[1],0 n (%)
same,"Leukopenia, Grade 2",[1],0 n (%)
same,"Leukopenia, Grade 3",[1],3 (75.0) n (%)
same,"Leukopenia, Grade 4",[1],0 n (%)
same,"Leukopenia, Grade 5",[1],0 n (%)
same,"Leukopenia, Total",[1],3 (75.0) n (%)
same,"Malaise, Grade 1",[1],2 (50.0) n (%)
same,"Malaise, Grade 2",[1],0 n (%)
same,"Malaise, Grade 3",[1],0 n (%)
same,"Malaise, Grade 4",[1],0 n (%)
same,"Malaise, Grade 5",[1],0 n (%)
same,"Malaise, Total",[1],2 (50.0) n (%)
same,"Nausea, Grade 1",[1],3 (75.0) n (%)
same,"Nausea, Grade 2",[1],0 n (%)
same,"Nausea, Grade 3",[1],1 (25.0) n (%)
same,"Nausea, Grade 4",[1],0 n (%)
same,"Nausea, Grade 5",[1],0 n (%)
same,"Nausea, Total",[1],4 (100.0) n (%)
same,"Neutropenia, Grade 1",[1],0 n (%)
same,"Neutropenia, Grade 2",[1],0 n (%)
same,"Neutropenia, Grade 3",[1],3 (75.0) n (%)
same,"Neutropenia, Grade 4",[1],0 n (%)
same,"Neutropenia, Grade 5",[1],0 n (%)
same,"Neutropenia, Total",[1],3 (75.0) n (%)
same,"Pain in extremity, Grade 1",[1],1 (25.0) n (%)
same,"Pain in extremity, Grade 2",[1],1 (25.0) n (%)
same,"Pain in extremity, Grade 3",[1],0 n (%)
same,"Pain in extremity, Grade 4",[1],0 n (%)
same,"Pain in extremity, Grade 5",[1],0 n (%)
same,"Pain in extremity, Total",[1],2 (50.0) n (%)
same,"Pyrexia, Grade 1",[1],1 (25.0) n (%)
same,"Pyrexia, Grade 2",[1],1 (25.0) n (%)
same,"Pyrexia, Grade 3",[1],0 n (%)
same,"Pyrexia, Grade 4",[1],0 n (%)
same,"Pyrexia, Grade 5",[1],0 n (%)
same,"Pyrexia, Total",[1],2 (50.0) n (%)
same,"Rash, Grade 1",[1],2 (50.0) n (%)
same,"Rash, Grade 2",[1],1 (25.0) n (%)
same,"Rash, Grade 3",[1],0 n (%)
same,"Rash, Grade 4",[1],0 n (%)
same,"Rash, Grade 5",[1],0 n (%)
same,"Rash, Total",[1],3 (75.0) n (%)
same,"Thrombocytopenia, Grade 1",[1],1 (25.0) n (%)
same,"Thrombocytopenia, Grade 2",[1],1 (25.0) n (%)
same,"Thrombocytopenia, Grade 3",[1],0 n (%)
same,"Thrombocytopenia, Grade 4",[1],0 n (%)
same,"Thrombocytopenia, Grade 5",[1],0 n (%)
same,"Thrombocytopenia, Total",[1],2 (50.0) n (%)
same,"Vomiting, Grade 1",[1],2 (50.0) n (%)
same,"Vomiting, Grade 2",[1],1 (25.0) n (%)
same,"Vomiting, Grade 3",[1],0 n (%)
same,"Vomiting, Grade 4",[1],0 n (%)
same,"Vomiting, Grade 5",[1],0 n (%)
same,"Vomiting, Total",[1],3 (75.0) n (%)
same,"Any SAE, Grade 1",[2],0 n (%)
same,"Any SAE, Grade 2",[2],1 (25.0) n (%)
same,"Any SAE, Grade 3",[2],1 (25.0) n (%)
same,"Any SAE, Grade 4",[2],0 n (%)
same,"Any SAE, Grade 5",[2],0 n (%)
same,"Any SAE, Total",[2],2 (50.0) n (%)
same,"Cognitive disorder, Grade 1",[2],0 n (%)
same,"Cognitive disorder, Grade 2",[2],0 n (%)
same,"Cognitive disorder, Grade 3",[2],1 (25.0) n (%)
same,"Cognitive disorder, Grade 4",[2],0 n (%)
same,"Cognitive disorder, Grade 5",[2],0 n (%)
same,"Cognitive disorder, Total",[2],1 (25.0) n (%)
same,"Rash, Grade 1",[2],0 n (%)
same,"Rash, Grade 2",[2],1 (25.0) n (%)
same,"Rash, Grade 3",[2],0 n (%)
same,"Rash, Grade 4",[2],0 n (%)
same,"Rash, Grade 5",[2],0 n (%)
same,"Rash, Total",[2],1 (25.0) n (%)
same,Patients who experienced SAEs,14 of the 21 treated patients,66.7%
same,"Grade 4 TEAE: decreased neutrophil count, patients",[3],5.9%
same,"Grade 4 TEAE: decreased white blood cell count, patients",[3],5.9%
same,"PF-04136309-related TEAE: rash, patients","500-mg BID group (n = 17), n = 6",35.3%
same,"PF-04136309-related TEAE: rash, patients","750-mg BID group (n = 4), n = 3",75.0%
same,DLT events,"750-mg BID group, one of four patients, cycle 1 day 7, resolved same day",grade 3 cognitive disorder
same,"ALT increase, grade ≥3",[4],4 (19.0) n (%)
same,"AST increase, grade ≥3",[4],4 (19.0) n (%)
same,"Anemia, grade ≥3",[4],4 (19.0) n (%)
same,"Fatigue, grade ≥3",[4],4 (19.0) n (%)
same,"Leukopenia, grade ≥3",[4],5 (23.8) n (%)
same,"Lymphopenia, grade ≥3",[4],5 (23.8) n (%)
same,"Neutropenia, grade ≥3",[4],5 (23.8) n (%)
same,DLT,"Total n = 21, first cycle, 5 DLTs in four patients",4 (19.0)^c n (%)
same,Deaths,"all in 500-mg BID group, 10 of 11 due to disease under study, one due to grade 5 pneumonia",Eleven
same,Changes in laboratory tests consistent with a relationship to study drug,all treated patients,no clinically significant changes
same,Changes in vital signs data consistent with a relationship to study drug,all treated patients,no clinically significant changes
same,Recommended phase II dose (RP2D),in combination with nab-paclitaxel/gemcitabine,500 mg BID
same,Late-onset DLT,in vivo,Grade 3 pneumonitis
same,Incidence of pulmonary toxicity,"n = 21, combination with nab-paclitaxel/gemcitabine",24%
same,Patients who experienced treatment-related SAEs,"seven of 21, attributed to at least one of PF-04136309, nab-paclitaxel, gemcitabine",33.3%
